# In patent publication US9352015B2, “Antimicrobial peptides” (priority 2009, dated 2016):
# Where “and” joins values, the source holds several entries; their conditions need not be identical. Equal entries are not always repeated. Where two headings read alike, the source gives them in different places.
# Key:
# [1] = RP-HPLC retention as measure of overall peptide hydrophobicity; format: physicochemical; conditions: pH 2, room temperature
# Description: Crude and purified peptides were analyzed on an Agilent 1100 series liquid chromatograph (Little Falls, Del.). Runs were performed on a Zorbax 300 SB-C8 column (150×2.1 mm I.D.; 5 μm particle size, 300 Å pore size) from Agilent Technologies using linear AB gradient (1% acetonitrile/min) and a flow rate of 0.25 ml/min, where eluant A was 0.2% aqueous TFA, pH 2 and eluant B was 0.2% TFA in acetonitrile.
# human erythrocytes [2] = test: Hemolytic activity against human erythrocytes (HC50 / MHC, microtiter dilution); format: cell-based; conditions: V681 analog studies
# [3] = as above; format: cell-based; conditions: 1% human erythrocytes, pH 7.4, read-out: Hemolytic activity HC50
# Description: (§1) Hemoglobin release was determined spectrophotometrically at 570 nm. The hemolytic activity was determined as the peptide concentration that caused 50% hemolysis of erythrocytes after 18 h (HC50). […] HC50 was determined by a plot of peptide concentration versus percent lysis.
# human erythrocytes [4] = test: as above; format: cell-based
# Description: as §1
# [5] = system: Methicillin Resistant Staphylococcus aureus (MRSA) and Staphylococcus aureus; format: cell-based; conditions: Mueller Hinton medium; for MIC: 24 hours at 37° C.
# Procedure, shortened: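 MICs by microtiter broth dilution in triplicate determinations, mostly LB no-salt medium (sometimes MH or BHI), final inoculum 5×10^5 CFU/ml (1×10^5 CFU/ml in the MH variant), 24 h at 37 °C. MIC is the lowest peptide concentration inhibiting growth; tested on 20 clinical MRSA and S. aureus isolates.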
# Pseudomonas aeruginosa = conditions: for MIC PAO 1: 37° C., 24 h, strain PAO1; for MIC GM (geometric mean of the MIC values): six P. aeruginosa strains; for MIC CP 204: strain CP204; for MIC M 2: strain M2; for MIC PA 14: strain PA14; for MIC PAK: strain PAK; for MIC WR 5: strain WR5
# Acinetobacter baumannii = format: cell-based
# Procedure, shortened: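 Microtiter broth dilution in triplicate, mainly LB no-salt medium (MH or BHI in some cases), peptides serially diluted, final inoculum 5×10^5 CFU/ml (1×10^5 CFU/ml in MH variant); 24 h at 37° C. MIC is the lowest peptide concentration inhibiting growth, given in micromolar against clinical isolates.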
# [6] = human erythrocytes, concentration of peptide that results in 50% hemolysis after 18 hours at 37° C.
# [7] = human red blood cells, 50% hemolysis after 18 h
smiles,measurement,setting,value
"CC[C@@H](C)[C@@H](NC(=O)[C@@H](C)NC(=O)[C@@H](CCCCN)NC(=O)[C@@H](CC(C)C)NC(=O)[C@@H](C)NC(=O)[C@H](NC(=O)[C@@H](Cc1c[nH]cn1)NC(=O)[C@@H](CC(C)C)NC(=O)[C@H](NC(=O)[C@H](NC(=O)[C@@H](CCCCN)NC(=O)[C@@H](CCCCN)NC(=O)[C@@H](C)NC(=O)[C@@H](CO)NC(=O)[C@@H](CCCCN)NC(=O)[C@@H](Cc1ccccc1)NC(=O)[C@H](NC(=O)[C@@H](CCCCN)NC(=O)[C@@H](CC(C)C)NC(=O)[C@@H](Cc1ccccc1)NC(=O)[C@@H](CO)NC(=O)[C@@H](CCCCN)NC(=O)[C@@H](Cc1c[nH]c2ccccc12)NC(=O)[C@@H](CCCCN)NC(C)=O)[C@H](C)O)[C@H](C)O)C(C)C)[C@H](C)O)C(=O)N[C@H](CO)C(=O)N[C@H](CO)C(N)=O [Peptide D1, Ac-KWKSFLKTFKSAKKTVLHTALKAISS-amide]",Hydrophobicity (retention time in RP-HPLC),[1],76.8 min and 76.75 min
same,"Hemolytic activity, minimal hemolytic concentration (MHC)",human erythrocytes [2],non-hemolytic
same,HC50 at 18 h,[3]; [6],141 µM
same,HC50 at 18 h,[3]; [7],422 µg/mL
same,Hemolytic activity HC50,human erythrocytes [4]; 50% hemolysis after 18 hours at 37° C.,141 µM
same,Hemolytic activity HC50,human erythrocytes [4]; [6],140.9 µM
same,Hemolytic activity HC50,human erythrocytes [4]; [7],421.5 µg/mL
same,Hemolytic activity HC50,"human erythrocytes [4]; human red blood cells, 18 h",140.9 µM
same,MIC,[5]; S. aureus strain 1,23.9 µM
same,MIC,"[5]; S. aureus strain 2, R (MRSA resistant to Oxacillin)",12.0 µM
same,MIC,[5]; S. aureus strain 3,23.9 µM
same,MIC,"[5]; S. aureus strain 4, R (MRSA resistant to Oxacillin)",23.9 µM
same,MIC,[5]; S. aureus strain 5,23.9 µM
same,MIC,[5]; S. aureus strain 6,23.9 µM
same,MIC,"[5]; S. aureus strain 7, R (MRSA resistant to Oxacillin)",3.0 µM
same,MIC,[5]; S. aureus strain 8,95.5 µM
same,MIC,"[5]; S. aureus strain 9, R (MRSA resistant to Oxacillin)",12.0 µM
same,MIC,[5]; S. aureus strain 10,12.0 µM
same,MIC,"[5]; S. aureus strain 11, R (MRSA resistant to Oxacillin)",12.0 µM
same,MIC,"[5]; S. aureus strain 12, R (MRSA resistant to Oxacillin)",6.0 µM
same,MIC,[5]; S. aureus strain 13,1.5 µM
same,MIC,"[5]; S. aureus strain 14, R (MRSA resistant to Oxacillin)",6.0 µM
same,MIC,[5]; S. aureus strain 15,47.7 µM
same,MIC,"[5]; S. aureus strain 16, R (MRSA resistant to Oxacillin)",23.9 µM
same,MIC,[5]; S. aureus strain 17,23.9 µM
same,MIC,[5]; S. aureus strain 18,23.9 µM
same,MIC,[5]; S. aureus strain 19,47.7 µM
same,MIC,[5]; S. aureus strain 20,12.0 µM
same,MIC GM (geometric mean),[5]; geometric mean of the MIC values from 20 different isolates of MRSA/SA,15.7 µM
same,MIC PAO 1,Pseudomonas aeruginosa; Brain Heart Infusion medium,31.3 µg/mL
same,MIC GM (geometric mean of the MIC values),Pseudomonas aeruginosa; Brain Heart Infusion medium,31.2 µg/mL
same,MIC CP 204,Pseudomonas aeruginosa; Brain Heart Infusion medium,62.5 µg/mL
same,MIC M 2,Pseudomonas aeruginosa; Brain Heart Infusion medium,62.5 µg/mL
same,MIC PA 14,Pseudomonas aeruginosa; Brain Heart Infusion medium,15.6 µg/mL
same,MIC PAK,Pseudomonas aeruginosa; Brain Heart Infusion medium,31.3 µg/mL
same,MIC WR 5,Pseudomonas aeruginosa; Brain Heart Infusion medium,15.6 µg/mL
same,MIC PAO 1,Pseudomonas aeruginosa; Mueller Hinton medium,7.8 µg/mL
same,MIC GM (geometric mean of the MIC values),Pseudomonas aeruginosa; Mueller Hinton medium,12.4 µg/mL
same,MIC CP 204,Pseudomonas aeruginosa; Mueller Hinton medium,15.6 µg/mL
same,MIC M 2,Pseudomonas aeruginosa; Mueller Hinton medium,7.8 µg/mL
same,MIC PA 14,Pseudomonas aeruginosa; Mueller Hinton medium,15.6 µg/mL
same,MIC PAK,Pseudomonas aeruginosa; Mueller Hinton medium,15.6 µg/mL
same,MIC WR 5,Pseudomonas aeruginosa; Mueller Hinton medium,15.6 µg/mL
same,Pseudomonas aeruginosa MICGM,"Pseudomonas aeruginosa; geometric mean, 6 different isolates, 24 hours at 37° C.",4.1 µM
same,MIC,"Acinetobacter baumannii; A. baumannii strain 1 ATCC 17978, Mueller Hinton medium, 24 hours at 37° C.",0.8 µM
same,MIC,"Acinetobacter baumannii; A. baumannii strain 2 ATCC 19606, Mueller Hinton medium, 24 hours at 37° C.",1.5 µM
same,MIC,"Acinetobacter baumannii; A. baumannii strain 3, 649 Blood, Mueller Hinton medium, 24 hours at 37° C.",0.8 µM
same,MIC,"Acinetobacter baumannii; A. baumannii strain 4, 689 Groin, Mueller Hinton medium, 24 hours at 37° C.",0.8 µM
same,MIC,"Acinetobacter baumannii; A. baumannii strain 5, 759 Gluteus, Mueller Hinton medium, 24 hours at 37° C.",1.5 µM
same,MIC,"Acinetobacter baumannii; A. baumannii strain 6, 821 Urine, Mueller Hinton medium, 24 hours at 37° C.",1.5 µM
same,MIC,"Acinetobacter baumannii; A. baumannii strain 7, 884 Axilla, Mueller Hinton medium, 24 hours at 37° C.",1.5 µM
same,MIC,"Acinetobacter baumannii; A. baumannii strain 8, 899 Perineum, Mueller Hinton medium, 24 hours at 37° C.",1.5 µM
same,MIC,"Acinetobacter baumannii; A. baumannii strain 9, 964 Throat, Mueller Hinton medium, 24 hours at 37° C.",1.5 µM
same,MIC,"Acinetobacter baumannii; A. baumannii strain 10, 985 Pleural fluid, Mueller Hinton medium, 24 hours at 37° C.",0.8 µM
same,MIC,"Acinetobacter baumannii; A. baumannii strain 11, 1012 Sputum, Mueller Hinton medium, 24 hours at 37° C.",0.8 µM
same,Antimicrobial Activity MIC against A. baumannii,"Acinetobacter baumannii; geometric mean (GM-MIC), 11 clinical isolates",1.1 µM
same,MIC GM (geometric mean),"Acinetobacter baumannii; geometric mean of the MIC values from 11 different isolates of Acinetobacter baumannii, Mueller Hinton medium",1.1 µM
same,Acinetobacter baumannii MICGM,"Acinetobacter baumannii; geometric mean, 11 different isolates, 24 hours at 37° C.",1.1 µM
